For 86 compounds, melting point results are on record in a melting point compilation (Tetko et al.; mined from patent text by program, amines drawn as free bases though some values may be those of a salt).

Take `Cc1ccc(S(=O)(=O)N2[C@@H](CCC(=N)NO)CC[C@H]2c2ccc(F)cc2)cc1` (racemic): the melting point (as a rule, the temperature, or range, at which the solid turns liquid) came out at 134 °C.

In turn, `NCc1cccc(N2C(=O)N(c3ccccc3Br)Cc3cnc(Nc4ccccc4)nc32)c1` displayed a melting point of 121 °C.

Turning to `O=c1ccc(C(F)(F)F)cn1Cc1ccc([N+](=O)[O-])cc1`, the melting point was in the range of 121 to 123 °C.

Consider `CN1CCN2CCNC2(c2ccccc2)c2cc(Cl)ccc21` (stereo unspecified), for which the melting point was in the range of 100 to 102 °C.

Turning to `CCOC(Cc1ccc(OCCN2CCSc3ccccc32)cc1)C(=O)NCc1ccccc1` (stereo unspecified), the melting point is 92 to 93 °C.

Take `O=C(O)c1cc2cc(Cl)ccc2nc1N[C@@H](CO)Cc1ccccc1`: the melting point was in the range of 213 to 216 °C.

`O=S1(=O)NCNc2c(-c3ccccc3)cc(-c3ccccc3)cc21`: the melting point is 222 to 225 °C.

`CC(C)OC(=O)Cc1ccc2c(c1)C(=O)c1sccc1CO2` showed a melting point of 92 to 94 °C.

`CC(=O)c1cc(C#N)c(=O)[nH]c1C=CN(C)C` gave a melting point of 267 to 270 °C.

Compound `CC(=O)NCc1ccc2c(c1)N(C1CCN(CCCCc3ccc(F)cc3)CC1)CC2` showed a melting point of 119 to 121 °C.

For `CCCOC(=O)Oc1ccc(-c2nc3c(N)nc(N)nc3nc2N)cc1`, the melting point is 302 to 308 °C.

On to `COC(=O)Nc1nc(-c2ccccc2)c(-c2nc3ccccc3c(=O)n2-c2ccccc2)s1`, for which the melting point is > 275 °C.

With `COC1Nc2c(O)cccc2C(=O)N2CCCC12` (stereo unspecified), the melting point was in the range of 150 to 153 °C.

With `COc1ccc(Cc2nnsc2-c2cccs2)cc1`, the melting point is 72.2 to 73.3 °C.

In turn, `Cc1noc(NC(=O)N2CCN(c3nccc(-c4c(F)cccc4F)n3)CC2)c1C` showed a melting point of 189 to 190 °C.

`O=C1c2ccccc2C(=O)N1CCN1CCC(=C(c2ccccc2)c2ccccc2)CC1` showed a melting point of 106 to 108 °C.

Regarding `CN(C)C(=O)C1=C(C(=O)Nc2cc(OC3CCCC3)c(Cl)cc2F)CCCC1`, the melting point fell in the range of 136 to 138 °C.

On to `CC1=C2CCC(=O)C23CCC(C3)C1(C)C` (stereo unspecified), for which the melting point lay in the range of 35 to 36 °C.

`Cc1ccc(-c2cccc(C(N)=NO)c2)cc1` had a melting point of 134 to 136 °C.

For the compound `CCCc1cc(C(=O)O)cc(CCC)c1OCCCCCCc1cccc(O)c1O`, the melting point is 94 to 96 °C.

Turning to `CN1C(=O)CCC(C(=O)O)C1c1ccc2c(c1)OCO2` (stereo unspecified), the melting point fell in the range of 231 to 232 °C.

Take `CCCCCCCCCCCCCCCC(=O)OCC1(O)COC(O)(COC(=O)CCCCCCCCCCCCCCC)CO1` (stereo unspecified): the melting point worked out at 95.2 °C.

As to `CCc1nc2c(cnn2CC)c(NC2CCOCC2)c1CNC(=O)c1cccc(C(=O)NCc2cc(Cl)cc(-c3cccc(CN4CCCN(C)CC4)c3)c2)c1`, the melting point was 111 to 113 °C.

In turn, `Cc1cc2cn[nH]c2c(C(=O)NC(C)C)c1NC(=O)c1cc(OCC(F)(F)F)nn1-c1ncccc1Cl` came in with a melting point of 247 to 250 °C.

`COC(=O)c1ccc(-c2c(CC(=O)Nc3ccc(F)cc3C(F)(F)F)c(=O)oc3cc(Cl)c(C)cc23)cc1` gave a melting point of 202 to 204 °C.

The compound `CCCCCCCCCCOc1cc(OCCCCCCCCCC)cc(N(CC(=O)OCc2ccccc2)CC(=O)OCc2ccccc2)c1` yielded a melting point of 55 to 57 °C.

Take `O=C1CC(c2cccc(-n3ccnn3)c2)=Nc2cc(O)c(-c3ccccc3F)cc2N1`: the melting point was > 250 °C.

For the compound `CC(C)COc1ccc(NC(=O)c2cnn(-c3ccc(F)cc3)c2O)cc1C#N`, the melting point fell in the range of 207 to 208 °C.

The compound `Cc1ccc(S(=O)(=O)N=NCNC[C@@H]2C[C@H](C(=O)O)N(C(=O)OC(C)(C)C)C2)cc1` registered a melting point of 132 to 133 °C.

Take `Cc1cccc(CCC(=O)c2ccccc2)c1NC(=O)CC1c2ccccc2Oc2ccccc21`: the melting point lay in the range of 175 to 176 °C.

Compound `Cc1cc(-c2cc(C(F)(F)F)nn2-c2ccc(S(C)(=O)=O)c(F)c2)ccc1-c1ccco1` showed a melting point of 123 to 125 °C.

For `CC(=O)c1cc(N=c2cc(C)n(C)c(N)n2)cc(C(C)=O)c1`, the melting point fell in the range of 219 to 220 °C.

As for `CC/C(=C(\c1ccc(/C=C/C(=O)O)cc1)c1ccc(OC(=O)CN(C)C)cc1)c1ccccc1`, the melting point lay in the range of 206 to 208 °C.

With `NC1(CC(=O)O)CCCCC1`, the melting point lay within 200 to 204 °C.

`Clc1ccc(-c2nnc(Br)cc2Br)cc1` returned a melting point of 160 to 162 °C.

In turn, `CC(c1oc2ccccc2c(=O)c1-c1ccccc1)n1nc(-c2ccc3cn[nH]c3c2)c2c(N)ncnc21` (stereo unspecified) showed a melting point of 176 to 178 °C.

Compound `CSc1nc(Cl)nc2sc(C)cc12` registered a melting point of 111 to 112 °C.

Compound `CCc1noc(C)c1-c1[nH]c2ccccc2c1CC(=O)N(C)C` registered a melting point of 176 to 178 °C.

Consider `CC(O)C(CCCc1ccccc1)n1ncc2c(=O)[nH]c(Cc3ccc(Cl)cc3)nc21` (stereo unspecified), for which the melting point amounted to 101 °C.

In turn, `COCCOCc1nc2c(N)nc3ccccc3c2n1CCOc1ccccc1` showed a melting point of 170 to 172 °C.

On to `CCN(CC)CC(O)CNC(=O)c1c(OC)c2ccccc2n1-c1ccccc1` (stereo unspecified), for which the melting point was in the range of 148 to 150 °C.

The compound `O=C(NCCOc1ccc(CC(Oc2cccc(F)c2)C(=O)O)cc1)c1ccc(-c2ccccn2)cc1` (stereo unspecified) came in with a melting point of 136 to 138 °C.

In turn, `COc1ccnc(N2CCN(Cc3ccc(C(C)NC(C)=O)cc3)CC2)n1` (stereo unspecified) came in with a melting point of 113 to 115 °C.

`CC1(C)CCC2(CC1)CC(=O)N(CCCn1c(=O)sc3ccc(Cl)cc31)C2=O` yielded a melting point of 159 to 160 °C.

In turn, `CC1CC2C3CCC4=CC(=O)CCC4=C3C=CC2(C)C1O` (stereo unspecified) had a melting point of 149 to 151 °C.

Compound `Cn1c(=O)c(-c2c(Cl)cccc2Cl)cc2cnc(NCCCN3CCOCC3)nc21` displayed a melting point of 140 to 142 °C.

On to `CCOC(=O)c1ccc(Nc2c(NCc3ccccc3)cc(C(=O)OCC)cc2S(N)(=O)=O)cc1`, for which the melting point came out at 161 °C.

For `O=c1oc2c(c(=O)n1C1CCCCC1)CCC2`, the melting point fell in the range of 72 to 74 °C.

In the case of `COCc1c(C=C(Br)Br)ncc2c1c1c(OCc3ccccc3)cccc1n2S(=O)(=O)c1ccc(C)cc1`, the melting point was 149 to 152 °C.

Compound `Nc1c2c(nc3ccccc13)CCSC2` yielded a melting point of 214 to 216 °C.

With `Cc1ccccc1C(=O)N1CCC(=O)c2cc(F)c(Cl)cc21`, the melting point was 84.9 to 88.7 °C.

Regarding `CCSc1nc(-c2ccccc2)cc2nnc(C)n12`, the melting point lay in the range of 210 to 212 °C.

Regarding `O=C(CCc1ccccc1)N[C@H](Cc1ccc(C(F)(F)F)cc1)[C@@H](O)c1ccoc1` (racemic), the melting point lay in the range of 134 to 135 °C.

`CC(C)COC(=O)C(N)C=CCP(=O)(O)O` (stereo unspecified) came in with a melting point of 163 to 164 °C.

Compound `CCS(=O)(=O)N[C@H](C(=O)NCCc1cc(Br)c(OCC#Cc2ccc(Cl)cc2)c(OC)c1)C(C)C` had a melting point of 109 to 111 °C.

Consider `O=C(Nc1ccc(-n2nc(C(F)(F)F)cc2C(F)(F)F)cc1)c1cccnc1Cl`, for which the melting point lay within 145 to 147 °C.

In turn, `CCCN1CCC(=O)C2=C1CSc1ccc(OC)cc12` came in with a melting point of 108 to 110 °C.

Turning to `Cc1nnc(-c2ccc(CN3C(=O)C4(COc5cc6c(cc54)CCO6)c4ccccc43)cc2)[nH]1` (stereo unspecified), the melting point was 169 to 180 °C.

As to `CCCCN(CC)C(=O)c1cnc2c3c(ccc2c1)C(=O)C(C(=O)O)C=N3` (stereo unspecified), the melting point fell in the range of 236 to 237 °C.

As for `Cc1ccc(C)c(-c2cc(CO)ccc2CO)c1`, the melting point is 145 to 148 °C.

Compound `CCS[C@@H]1c2ccn3c(C)c(C)nc3c2N[C@H](c2ccccc2)[C@H]1O` gave a melting point of 220 to 223 °C.

As to `COc1ccccc1-n1cnc2c(C(N)=O)nc(-c3ccccc3O)nc21`, the melting point is 278 to 280 °C.

`CC(C)(C#N)CNC(=O)c1nn(C2CCCCO2)cc1NC(=O)c1ccccn1` (stereo unspecified) gave a melting point of 138 to 140 °C.

On to `CC1(C)Cc2nc(C3CCCC3)c(C(=O)c3ccc(C(F)(F)F)cc3)c(-c3ccc(F)c(F)c3)c2C(O)C1` (stereo unspecified), for which the melting point lay in the range of 166 to 168 °C.

`CCCNC(=O)C1(CCCN2CCC(N3Cc4ccccc4C3=O)CC2)c2ccccc2-c2ccccc21` yielded a melting point of 136 to 138 °C.

Compound `CCOCc1nc2c(N)nc3cc(O)ccc3c2n1CC(C)(C)NS(C)(=O)=O` gave a melting point of 255 to 256 °C.

`CN1CC(CCCl)N(C)c2nc3ccccc3n2C1=O` (stereo unspecified) had a melting point of 158 to 159 °C.

Regarding `CC(=O)c1cc(-c2ccc(S(C)(=O)=O)cc2)n(-c2ccc(F)cc2)n1`, the melting point is 207 to 209 °C.

Regarding `C/C(=C\c1ccc(-c2ccccc2)cc1)C(=O)O`, the melting point was 178 °C.

`CCCc1c(OCCOCCOc2c(C(C)=O)ccc(OCC(=O)O)c2CCC)ccc(C(C)=O)c1O` had a melting point of 96 to 99 °C.

On to `COc1cc2c(cc1OC)C1CCC(O)CC1N=C2c1ccc(OCC2CC2)c(OCC2CC2)c1` (stereo unspecified), for which the melting point was 172 to 174 °C.

With `CSc1nnc2c(=O)c3ccc(C)cc3ccn12`, the melting point lay in the range of 178 to 179 °C.

With `Oc1ccccc1CCC1NCCS1` (stereo unspecified), the melting point is 100 to 102 °C.

In the case of `CCc1ccc2c(c1)cc(C(=O)O)n2CC(=O)OC`, the melting point came to 181 °C.

`CN1C(=O)Cc2cccc(C(=O)c3ccccc3)c21` gave a melting point of 89 to 90.5 °C.

In turn, `CCOc1cccc(C2NC(C(=O)O)CS2)c1OCCO[N+](=O)[O-]` (stereo unspecified) yielded a melting point of 124 to 125 °C.

The compound `CC(=O)n1cc(C#N)c(-c2cccc(Cl)c2F)c1` registered a melting point of 141 to 142 °C.

Regarding `COC(=O)COc1cccc2c1CCC(CC(=O)CBr)C2` (stereo unspecified), the melting point lay within 77 to 78 °C.

Compound `COc1ccc(COC(=O)NC(CO)Cc2ccc(O)cc2)cc1` (stereo unspecified) returned a melting point of 139 to 141 °C.

`COc1ncnc(-c2cc(NS(C)(=O)=O)c(Cl)cc2Cl)c1C#N` displayed a melting point of 160 to 162 °C.

Compound `CC(C(N)=O)c1ccc2c(=O)c3ccccc3ccc2c1` (stereo unspecified) had a melting point of 158 to 159 °C.

Regarding `CC1c2ccccc2CCN1C(=O)c1cc2ncc(Br)cn2n1` (stereo unspecified), the melting point was in the range of 121 to 123 °C.

Take `CC(C)(C)OC(=O)NNc1ccc(N)cn1`: the melting point was in the range of 140 to 142 °C.

Regarding `COC(=O)C=CCc1cc(C=CC(=O)OC(C)(C)C)cc(Cc2cccnc2)c1`, the melting point is 91 to 93 °C.

As to `O=C1NC(=O)C(=Cc2ccc(OCCNc3nc4ccccc4o3)cc2)S1`, the melting point was 242 to 245 °C.

The compound `COc1ccc(/C(=C\C(=O)N2CCNCC2)c2ccccc2Cl)cc1` displayed a melting point of 108 to 110 °C.
